Test results: US20260076952A1, “Agent for Treatment of Neutropenia” (Eberhard Karls Universität Tübingen Medizinische Fakultät, priority 2023, published 2026)
“Also recorded” adds a separate entry of the source.

How the values were obtained:
[1] = system: in vitro generated neutrophils; test: RealTime-Glo MT cell viability assay on in vitro generated neutrophils; assay type: cell-based, human; conditions: day 13 of LCD, four healthy donors
[2] = prior-art clinical trials, used to inhibit CDKs and induce apoptosis in leukemia cells (Gerson et al. 2018); cited from earlier work
[3] = system: in vitro generated neutrophils; test: Reactive oxygen species (ROS) assay of in vitro generated neutrophils; assay type: cell-based, human; conditions: differentiated in the presence of 40 nM flavopiridol
[4] = system: CD34+ HSPCs of healthy donors; test: Annexin V apoptosis assay on CD34+ HSPCs; assay type: cell-based, human; conditions: 40 nM, 48 hours
[5] = system: primary bone marrow CD34+ HSPCs of healthy donors; test: Granulocytic liquid culture differentiation (LCD) of healthy donor CD34+ HSPCs; assay type: cell-based, human; conditions: for neutrophil count, morphological examination of cytospin preparations: day 14
Procedure: (§1) CD34+ cells were seeded in a 24-well plate at a density of 2×10^5 cells/ml. […] Medium was exchanged every second day. On day 7, cells were plated in RPMI 1640 GlutaMAX supplemented with 10% FBS, 1% penicillin/streptomycin and 10 ng/ml G-CSF. On day 14, cells were analyzed by flow cytometry using following mouse anti-human antibodies: CD34 (BD, #348811), CD33 (BioLegend, #303416), CD45 (BioLegend, #304036), CD11b (BD, #557754), CD15 (BD, #555402), CD66b (BioLegend, #305114), CD16 (BD, #561248).

[6] = system: hax1-knock-down zebrafish mutant embryos (hax1 MO); test: Zebrafish hax1 knock-down neutropenia model, number of neutrophils; assay type: in vivo; conditions: two days treatment
Procedure: (§2) Zebrafish transgenic lines and wild type were maintained according to standard protocols and handled in accordance with European Union animal protection directive 2010/63/EU. The maintenance was approved by the local government (Tierschutzgesetz § 11, Abs. 1, Nr. 1, husbandry permit 35/9185.46/Uni TÜ). All the experiments were performed in zebrafish embryos under 5 days post fertilization. In this study the inventors used two transgenic (tg) reporter lines, tg(mpo: gfp), where neutrophils express gfp and tg(CD41:gfp),where HSPCs express gfp, both described in the art.
(§3) To generate the jagn1b and hax1 mutants two different approaches were used, CRISPR/Cas9-mediated knock-out and morpholino-based knock down, respectively. On the one hand, to interfere with the function of jagn1b, jagn1b-targeting sgRNA and Cas9 protein RNPs (Alt-R S.p. Cas9 nuclease, v.3, IDT) were injected into the blastomere of 1-cell stage tg (mpo: gfp) embryos, as described in the art. On the other hand, to interfere with hax1 function 1 mM hax1-specific morpholino (GeneTool) was injected into 1-cell stage tg (mpo: gfp) embryos as previously described in the art. […] After two days of treatment, the number of mpo:gfp^+ or CD41:gfp^+ cells where quantified using a Nikon stereo-fluorescent SMZ18 microscope.

[7] = system: in vitro generated neutrophils; test: Phagocytosis assay of in vitro generated neutrophils; assay type: cell-based, human; conditions: differentiated in the presence of 40 nM flavopiridol
[8] = system: human primary neutrophils of healthy donor; test: RealTime-Glo MT Cell Viability Assay on human primary neutrophils; assay type: cell-based; conditions: 40 nM, compared with 0.1% DMSO
Excerpt: The assay measures the reducing potential of viable cells in an ATP-independent manner and the nonlytic nature, high sensitivity and rapid response of the assay make it possible to track the cell viability over time in the same plate. Ficoll-Paque density gradient media (density: 1.077 g/mL) used for isolation of peripheral blood polymononuclear cell (PBPMNs) 1 of healthy donors.

[9] = system: primary bone marrow CD34+ HSPCs of ELANE-CN, HAX1-CN, JAGN1-CN and SRP54-CN patients; test: Granulocytic liquid culture differentiation (LCD) of CN patient CD34+ HSPCs; assay type: cell-based, human; conditions: all CN patients
Procedure: as §1

[10] = system: in vitro generated neutrophils; test: Chemotaxis assay of in vitro generated neutrophils; assay type: cell-based, human; conditions: differentiated in the presence of 40 nM flavopiridol
[11] = system: in vitro generated neutrophils; test: Annexin V apoptosis assay on in vitro generated neutrophils; assay type: cell-based, human; conditions: day 13 of LCD, four healthy donors
[12] = system: CD34+ HSPCs of healthy donors; test: RealTime-Glo MT Cell Viability Assay on CD34+ HSPCs; assay type: cell-based, human; conditions: 40 nM, 48 hours, versus DMSO-treated group
[13] = system: primary bone marrow CD34+ HSPCs of ELANE-CN, HAX1-CN, JAGN1-CN and SRP54-CN patients; test: CFU assay of primary bone marrow CD34+ HSPCs of CN patients; assay type: cell-based, human; conditions: two ELANE-CN, one HAX1-CN, one SRP54-CN patient, 40 nM
Excerpt: FIG. 4A. […] Data represent means±SD from two independent experiments. *P<0.05, **P<0.01.

[14] = system: jagn1b knock-out zebrafish mutant embryos; test: Zebrafish jagn1b knock-out neutropenia model, number of neutrophils; assay type: in vivo; conditions: two days treatment
Procedure: as §2, §3

[15] = system: primary bone marrow CD34+ HSPCs of healthy donors; test: CFU assay of primary bone marrow CD34+ HSPCs of healthy donors; assay type: cell-based, human; conditions: 40 nM, compared to DMSO control
Excerpt: FIG. 3A. […] Data represent means±SD from two independent experiments. **P<0.01.

ELANE-CN iPSCs = test: Colony-forming unit (CFU) assay of CD34+ cells from EB-based CN-iPSC culture; assay type: cell-based, human
Procedure: Colony-forming unit (CFU) assay of CD34^+ cells harvested from EB-based CN-iPSC culture on day 14 of differentiation treated with eleven short listed small molecules.
EB-Based Hematopoietic Differentiation of iPSCs iPSCs were cultured on SNL feeder cells for 24 hours and then dissociated using PBS/EDTA (0.02%) for 5 min. EB generation was performed by centrifugation of 2×10^4 cells per EB in 96-well plates using APEL serum-free differentiation medium (Stemcell Technologies) supplemented with bFGF (20 ng/μl) and ROCK Inhibitor (R&D). On day one, BMP4 (40 ng/μl) was added to the culture medium to induce mesodermal differentiation. On day four, EBs were plated on Matrigel-coated 6-well plates (10 EBs/well) in APEL medium supplemented with VEGF (40 ng/μl), SCF (50 ng/μl) and IL-3 (50 ng/μl). For neutrophilic differentiation, the medium was changed 3 days later to fresh APEL medium supplemented with IL3 (50 ng/μl) and G-CSF (50 ng/μl). All cytokines were purchased from R&D Systems if nothing else is indicated. First hematopoietic suspension cells appeared between day 10 and 14. Suspension cells were harvested every 3-4 days and analyzed starting from day 14 to day 32.
The inventors then selected eleven small molecules that could potentially mimic the differentially expressed genes (DEGs) signature between CN and CN-corrected HSPCs and screened the effect of these small molecules on granulopoiesis using their isogenic CN iPSC model.
HSPCs (CD41: gfp+ cells) = test: Zebrafish in vivo model, number of HSPCs in tg(CD41:gfp) embryos; conditions: up to 10 µM, two days, compared to DMSO-treated controls
Procedure: as §2, §3

[16] = three independent ELANE-CN derived iPSCs, 40 nM flavopiridol

For `CN1CC[C@H](c2c(O)cc(O)c3c(=O)cc(-c4ccccc4Cl)oc23)[C@H](O)C1` [flavopiridol], which “levels of viability upon differentiation” value [1] is on record?
Its value is “improved levels of viability”.

What about the “steady-state blood plasma levels” value [2] of the same molecule?
The value was “about 350 nM”.

And the “neutrophil function, reactive oxygen species (ROS)” value [3]?
Its value is “did not affect neutrophil function”.

What about the “apoptosis in CD34+ HSPCs” value [4] of the same molecule?
Its value is “did not induce apoptosis”.

What about the “granulopoiesis: numbers of granulocytes (CD45+CD15+CD11b+, CD45+CD15+CD66b+) and mature neutrophils (CD45+CD15+CD16+)” value ([5]; both healthy donors, 40 nM, 14 days, flow cytometry) of the same molecule?
The value was “significantly enhanced granulopoiesis”.

And the “neutrophil count, morphological examination of cytospin preparations” value ([5]; healthy donor one (HD1))?
The value was “no change”.

What about the “neutrophil count, morphological examination of cytospin preparations” value ([5]; healthy donor two (HD 2)) of the same molecule?
The value was “a significant increase in neutrophil count”.

And the “number of neutrophils (mpo: gfp+ cells)” value [6]?
The value was “significantly restored the number of neutrophils (mpo: gfp^+ cells) to a similar level to wildtype controls; also recorded: increased to a similar level than the wildtype controls”.

And the “neutrophil function, phagocytosis” value [7]?
Its value is “did not affect neutrophil function”.

And the viability of neutrophils ([8]; 3 hours)?
Its viability of neutrophils is “No significant difference”.

And the viability of neutrophils ([8]; 24 hours)?
The viability of neutrophils was “No significant difference”.

And the viability of neutrophils ([8]; 48 hours)?
Its viability of neutrophils is “No significant difference”.

And the “granulopoiesis: numbers of granulocytes and mature neutrophils by flow cytometry” value ([9]; 40 nM, 14 days)?
Its value is “significant restoration of granulopoiesis”.

What about the “granulopoiesis, morphological examination of cytospin preparations” value ([9]; day 14) of the same molecule?
The value was “significant restoration or restoration trend of granulopoiesis”.

And the “neutrophil function, chemotaxis” value [10]?
Its value is “did not affect neutrophil function”.

What about the early apoptotic cells [11] of the same molecule?
The early apoptotic cells was “about 3%”.

What about the late apoptotic cells [11] of the same molecule?
The late apoptotic cells was “less than 2%”.

What about the live cells [11] of the same molecule?
Its live cells is “More than 95%”.

And the “viability of CD34+ HSPCs” value [12]?
Its value is “comparable to that of the DMSO-treated group”.

What about the “levels of CFU-G” value [13] of the same molecule?
Its value is “significantly elevated levels of CFU-G in all CN groups”.

What about the “number of neutrophils (mpo: gfp+ cells)” value [14] of the same molecule?
Its value is “significantly restored the number of neutrophils (mpo: gfp^+ cells) to a similar level to wildtype controls; also recorded: restored the number of neutrophils (mpo: gfp^+ cells) to a similar level than the wildtype controls”.

And the “levels of CFU-G” value ([15]; healthy donor one (HD1))?
Its value is “significantly elevated levels of CFU-G”.

And the “levels of CFU-G” value ([15]; healthy donor two (HD2))?
The value was “no significant change”.

And the “granulopoiesis in CN iPSCs (screening)” value (ELANE-CN iPSCs; screen of eleven small molecules in isogenic CN iPSC model)?
Its value is “markedly restored the granulopoiesis”.

And the “CFU-macrophages (CFU-Ms)” value (ELANE-CN iPSCs; [16])?
The value was “significant decrease”.

What about the “colony-forming unit-granulocytes (CFU-G)” value (ELANE-CN iPSCs; [16]) of the same molecule?
Its value is “significant increase”.

And the “total number of HSPCs (CD41: gfp+ cells)” value (HSPCs (CD41: gfp+ cells))?
The value was “did not affect”.
